1 compound from publication PMC2074379 (British Journal of Cancer, 1996) can be followed below.

This test concerns serine carboxypeptidase. Nature of the test: Effect of PMSF on the in vitro metabolism of antagonist D in 2% mouse liver homogenate. In kind it is biochemical. The note with it: antagonist D 100 µg in 1.0 ml 2% w/v mouse liver homogenate in PBS, 37°C; PMSF 0-2.5 mM preincubated 15 min at 23°C; HPLC; mean of two to four experiments. An excerpt:
British Journal of Cancer (1996) 73, 715-720 ? 1996 Stockton Press All rights reserved 0007-0920/96 $12.00 % Metabolism of the broad-spectrum neuropeptide growth factor antagonist: ID-Arg1, D-Phe5, D-Trp7'9, Leull"-substance P DA Jones', J Cummings', SP Langdon', AJ Maclellan', T Higgins2, E Rozengurt2 and JF Smyth' 'Imperial Cancer Research Fund, Medical Oncology Unit, Western General Hospital, Edinburgh EH4 2XU; 2Imperial Cancer Research Fund, PO Box 123, Lincoln's Inn Fields, London WC2A 3PX, UK. Summary Broad-spectrum neuropeptide growth factor antagonists, such as [D-Arg', D-Phe5, D-Trp7'9, Leu']substance P (antagonist D) and [Arg6, D-Trp7'9, NmePhe8]substance p(6- 11) (antagonist G), are currently being investigated as possible anti-tumour agents. These compounds are hoped to be effective against neuropeptide-driven cancers such as small-cell lung cancer. […] The in vitro metabolism of antagonist D has been characterised and the structures of two major metabolites have been elucidated by amino acid analysis and mass spectrometry. […] HPLC The HPLC system used consisted of two 510 HPLC pumps, a 712 WISP autosampler, a TCM column heater (all Waters, Northwich, UK) and a model 1046A fluorescence detector (Hewlett Packard, Walborn, Germany). […]

In the case of `O=S(=O)(F)Cc1ccccc1` [PMSF, phenylmethylsulfonylfluoride], the “PMSF concentration sufficient to cause almost complete arrest of the metabolism of antagonist D” value is reported as 1.0 mM.
